In publication PMC5554167, “Intestinal transepithelial permeability of oxytocin into the blood is dependent on the receptor for advanced glycation end products in mice” (Scientific Reports, 2017):

Assays:
[1] = Plasma OT after intestinal delivery of OT in pups (EIA); type: in vivo, mice
Protocol: To confirm that the above increase after oral administration was primarily owing to permeability from the intestine, 5 μL of 100 μM OT (0.5 μg/pup) was applied directly into the small intestine, bypassing the mouth, buccal mucosal membrane, and/or upper parts of the digestive tract, including the oesophagus and stomach. The plasma OT in blood samples collected from the neck (Fig. 2a, inset) reached a peak at 10 min and decreased at 60 min and 120 min after intestinal application (Supplementary Fig. 1). […] The plasma OT level was higher at PND1 and PND3 than at PND7 in the group injected with OT (***P < 0.001 and **P < 0.01; Fig. 2a).
OT (100 μM) was injected through needles (28 G) into the proximal part (1~2 cm from the pylorus) of the small intestine of pups (5 μL) and adults (100 μL) under ketamine anaesthesia ([…] intraperitoneally), after the abdominal skin was cut to expose the small intestine in the abdominal cavity. The intestine was returned to the cavity or covered with paper and rinsed with saline. For the isolated pup intestines, 30 μL of 10 μM OT was injected at the distal end.
(§1) Approximately 30 μL of blood was collected from the facial vein of neonates after quick cold anesthesia on ice (Fig. 1a; ref. [67], [68]). […]
(§2) OT or AVP immunoreactivity levels were quantified by using OT and AVP enzyme immunoassay (EIA) kits (Enzo Life Sciences, NY, USA), respectively. […]

[2] = Plasma OT after oral delivery of OT in adult mice (EIA); type: in vivo
Protocol: In adult male mice (8 weeks old), when oral OT was administered at the same dose used for neonates (1 μg/mouse), as in Fig. 1b, no increase in the plasma OT concentration was observed (data not shown). To examine whether permeability exists in the adult intestine after barrier formation, a 10-fold higher volume of OT (100 μM × 100 μL) was used for oral delivery (10 μg/mouse). Blood samples were collected from anesthetized mice using a tail snip procedure, and OT concentrations were measured (Fig. 5a, inset).
Milk-borne OT was fed by mothers for 20 min after 20 min of starvation. A synthetic OT solution (100 µM; 10 μL for pups and 100 μL for adults) was administered orally. The same dose of [ILe^13C, ^15N]OT was delivered orally to pups. For oral administration, pups or adult mice were held by hand, and the OT solution was dispensed into their mouths using polypropylene tips.
as §1, §2

[3] = Plasma OT after suckling of dam's milk in pups, estimate of availability; type: in vivo, mice
Protocol: […] No clear difference in the OT level was observed between male and female pups.
An estimation of bioavailability was performed in adult mice. Fifty ng/mL of OT was detected after oral delivery of 10 μg of OT. Young adults weigh approximately 30 g and have 2.3 mL blood, so approximately 1% of oral OT can be absorbed. We have previously identified OT in the mammary tissues of mouse dams and in the milk curd inside the oesophagi of pups[13]. To determine the OT concentrations in milk, we needed to collect milk from the mothers. One common method is to collect milk after stimulating secretion with external OT. Because such milk contains external OT, we were unable to calculate the OT concentrations in milk. However, we carried out a new collection method without exogenous OT stimulation. We obtained samples at 5 days after parturition, and the concentration of milk OT was 1,200 pg/mL. If we estimate a pup’s milk intake to be 100 μL, the pups will ingest 120 pg of OT. […] According to Tanaka et al.[11], when [^3H]OT is administered to lactating rats, the radioactivity of intact OT in the neonatal content is 4.4% of the counts obtained for the maternal plasma. […]
as §2

[4] = Plasma OT after oral delivery of OT in pups (EIA); type: in vivo, mice; conditions: both sexes, C57BL/6N, 1 μg/mouse, wild-type pups PND6, oral 1 μg of OT/mouse, n = 5–8, read-out: Time of peak plasma OT concentration (converted)
Protocol: The possibility of transport during the suckling period of development (from PND1 to PND15) was confirmed by comparing plasma OT levels at 10 min after oral delivery with 10 μL of 100 μM synthetic OT solution (1 μg/pup) or the same volume of phosphate buffered saline (PBS) to male and female pups after fasting for 30 min. […] The plasma OT concentrations after oral OT delivery remained at higher levels at PND3–5 than in the saline controls (two-way analysis of variance (ANOVA), F 8.90 = 3.32, P < 0.002: Bonferroni’s post hoc tests for differences between OT and PNDs (^a P < 0.001, ^b P < 0.01, and ^c P < 0.05 from the value at PND8) and between OT and PBS (^d P < 0.01). The OT concentration dropped suddenly after PND6, although it remained higher than that in the saline control group. At PND8 and PND15, no concentration difference in plasma OT levels was observed between pups orally administered OT vs. those administered PBS.
The time profile of the plasma OT concentration after oral administration of OT peaked at 10 min in pups at PND6 (n = 5–8, one-way ANOVA, F 5,37 = 3.302, P < 0.02 from the control value; Fig. 1c). The plasma OT level depended on the oral OT dose in pups at PND6 (one-way ANOVA, F 3,24 = 20.35, P < 0.0001; Fig. 1d). […]
as §2

[5] = much longer in mucosal tissues; cited from earlier work
Text: OT absorption through the intestine was more difficult to detect in adults. The reasons for this difference with age may be owing to the progressive digestion of OT and strengthening of the gastrointestinal tract barrier. Similarly, a gradual decline in plasma OT concentrations during development appears to be caused by establishment of the intestinal barrier and intestinal digestion (Ref. [49] and Fig. 3d). Digestion is at a low level at birth and increases progressively during the first week in mice and humans. However, digestion of OT takes more than 30 min and is much longer in mucosal ...

[6] = cited from earlier work
Text: Breast milk contains a dynamic supply of hormones, including oxytocin (OT[4], [5], [10]–[15]), which is concentrated from the mother’s general circulation. […] OT in early life plays a role in the development of the social brain and in establishing social behaviour in adults, [20]–[23]. Therefore, breast milk not only nourishes beneficial microbes and provides immunity but also appears to improve well-being by improving human communication, [24]–[28]. Altho ...

[7] = [3H]OT administered to lactating rats; cited from earlier work

Row | Compound | Tmax ([1]; both sexes, C57BL/6N, mouse, plasma, pups (PND5, Supplementary Fig. 1), 0.5 μg/pup into the small intestine, read-out: Time of peak plasma OT concentration (converted)) [min] | Decrease of plasma OT concentration from PND1 to PND7 ([1]; wild-type pups, 10 min after intestinal OT injection (0.5 μg/pup)) | Change of plasma OT concentration ([2]; adult male mice (8 weeks old), oral 1 μg/mouse, data not shown) | Oral OT absorbed (estimated bioavailability) ([2]; adult mice, oral 10 μg of OT, assumes 30 g weight and 2.3 mL blood) | Availability of milk OT ([3]; PND5 pups, milk OT 1,200 pg/mL, milk intake 100 μL (120 pg), blood volume 200 μL, increase 20 pg) [%] | Increase of plasma OT after suckling ([3]; pups fed with dam's milk) | Tmax [4] [min] | Time for digestion of OT [5] | Stability in gastric acid [6] | Radioactivity of intact OT in the neonatal content, % of the counts of maternal plasma [7] [%]
1 | CC[C@H](C)[C@@H]1NC(=O)[C@H](Cc2ccc(O)cc2)NC(=O)[C@@H](N)CSSC[C@@H](C(=O)N2CCC[C@H]2C(=O)N[C@@H](CC(C)C)C(=O)NCC(N)=O)NC(=O)[C@H](CC(N)=O)NC(=O)[C@H](CCC(N)=O)NC1=O [OT, oxytocin] | 10 | approximately 4.6 fold | no increase | approximately 1% | 16.6 | approximately 100 pg/mL | 10 | more than 30 min | relatively stable | –
2 | [^3H]OT: tritium-labelled oxytocin administered to lactating rats in a cited study | – | – | – | – | – | – | – | – | – | 4.4
